Experimental findings from ChEMBL document CHEMBL1148695, “Synthesis and biological activity of nociceptin/orphanin FQ analogues substituted in position 7 or 11 with Calpha,alpha-dialkylated amino acids” (Bioorg Med Chem, 2007) are described below.

The structures appear in SMILES notation.

The target of this assay is Nociceptin receptor (Mus musculus, UniProt P35377). The assay can be described thus: Agonist activity at NOP receptor in Swiss mouse vas deferens assessed as effect on electrically stimulated contractions. Type of assay: functional, tissue-based.
Nociceptin receptor, sequence (P35377 whole entry): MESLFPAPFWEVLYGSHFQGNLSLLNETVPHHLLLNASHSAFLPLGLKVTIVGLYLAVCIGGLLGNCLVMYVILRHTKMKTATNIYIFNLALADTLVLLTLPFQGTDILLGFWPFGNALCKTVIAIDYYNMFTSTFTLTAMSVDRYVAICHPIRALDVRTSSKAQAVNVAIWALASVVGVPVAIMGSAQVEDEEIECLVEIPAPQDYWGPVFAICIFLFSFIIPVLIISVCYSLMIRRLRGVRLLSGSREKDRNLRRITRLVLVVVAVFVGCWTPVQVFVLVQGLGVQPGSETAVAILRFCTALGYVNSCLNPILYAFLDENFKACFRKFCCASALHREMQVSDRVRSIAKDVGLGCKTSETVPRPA
What is called EC50 is the concentration that produces a half-maximal response. On to `CC(C)C[C@H](NC(=O)[C@H](CCCCN)NC(=O)[C@H](CCCNC(=N)N)NC(=O)C(C)(NC(=O)[C@H](CO)NC(=O)[C@H](CCCCN)NC(=O)[C@H](CCCNC(=N)N)NC(=O)[C@H](C)NC(=O)CNC(=O)[C@@H](NC(=O)[C@H](Cc1ccccc1)NC(=O)CNC(=O)CNC(=O)[C@@H](N)Cc1ccccc1)[C@@H](C)O)C(C)C)C(=O)N[C@@H](C)C(=O)N[C@@H](CC(N)=O)C(=O)N[C@@H](CCC(N)=O)C(N)=O` (stereo partly drawn) [listing 1 of 2 here], for which the 50% effective concentration (EC50) is 14.8 nM. Regarding `CC(C)C[C@H](NC(=O)[C@H](CCCCN)NC(=O)[C@H](CCCNC(=N)N)NC(=O)C(C)(NC(=O)[C@H](CO)NC(=O)[C@H](CCCCN)NC(=O)[C@H](CCCNC(=N)N)NC(=O)[C@H](C)NC(=O)CNC(=O)[C@@H](NC(=O)[C@H](Cc1ccccc1)NC(=O)CNC(=O)CNC(=O)[C@@H](N)Cc1ccccc1)[C@@H](C)O)C(C)C)C(=O)N[C@@H](C)C(=O)N[C@@H](CC(N)=O)C(=O)N[C@@H](CCC(N)=O)C(N)=O` (stereo partly drawn) [listing 2 of 2 here], the EC50 was 19.5 nM. To `CC[C@](C)(NC(=O)CNC(=O)[C@@H](NC(=O)[C@H](Cc1ccccc1)NC(=O)CNC(=O)CNC(=O)[C@@H](N)Cc1ccccc1)[C@@H](C)O)C(=O)N[C@@H](CCCNC(=N)N)C(=O)N[C@@H](CCCCN)C(=O)N[C@@H](CO)C(=O)N[C@@H](C)C(=O)N[C@@H](CCCNC(=N)N)C(=O)N[C@@H](CCCCN)C(=O)N[C@@H](CC(C)C)C(=O)N[C@@H](C)C(=O)N[C@@H](CC(N)=O)C(=O)N[C@@H](CCC(N)=O)C(N)=O` [listing 1 of 2 here] belongs 24 nM; to `CC(C)C[C@H](NC(=O)[C@H](CCCCN)NC(=O)[C@H](CCCNC(=N)N)NC(=O)[C@H](C)NC(=O)[C@H](CO)NC(=O)[C@H](CCCCN)NC(=O)[C@H](CCCNC(=N)N)NC(=O)C(C)(NC(=O)CNC(=O)[C@@H](NC(=O)[C@H](Cc1ccccc1)NC(=O)CNC(=O)CNC(=O)[C@@H](N)Cc1ccccc1)[C@@H](C)O)C(C)C)C(=O)N[C@@H](C)C(=O)N[C@@H](CC(N)=O)C(=O)N[C@@H](CCC(N)=O)C(N)=O` (stereo partly drawn) [listing 1 of 2 here], 55 nM; to `CC(C)C[C@H](NC(=O)[C@H](CCCCN)NC(=O)[C@H](CCCNC(=N)N)NC(=O)[C@H](C)NC(=O)[C@H](CO)NC(=O)[C@H](CCCCN)NC(=O)[C@H](CCCNC(=N)N)NC(=O)C(C)(CC(C)C)NC(=O)CNC(=O)[C@@H](NC(=O)[C@H](Cc1ccccc1)NC(=O)CNC(=O)CNC(=O)[C@@H](N)Cc1ccccc1)[C@@H](C)O)C(=O)N[C@@H](C)C(=O)N[C@@H](CC(N)=O)C(=O)N[C@@H](CCC(N)=O)C(N)=O` (stereo partly drawn) [listing 1 of 2 here], 46.8 nM.

On to `CC(C)C[C@H](NC(=O)[C@H](CCCCN)NC(=O)[C@H](CCCNC(=N)N)NC(=O)[C@H](C)NC(=O)[C@H](CO)NC(=O)[C@H](CCCCN)NC(=O)[C@H](CCCNC(=N)N)NC(=O)C(C)(CC(C)C)NC(=O)CNC(=O)[C@@H](NC(=O)[C@H](Cc1ccccc1)NC(=O)CNC(=O)CNC(=O)[C@@H](N)Cc1ccccc1)[C@@H](C)O)C(=O)N[C@@H](C)C(=O)N[C@@H](CC(N)=O)C(=O)N[C@@H](CCC(N)=O)C(N)=O` (stereo partly drawn) [listing 2 of 2 here], for which the EC50 was 75.9 nM. To `CC[C@](C)(NC(=O)CNC(=O)[C@@H](NC(=O)[C@H](Cc1ccccc1)NC(=O)CNC(=O)CNC(=O)[C@@H](N)Cc1ccccc1)[C@@H](C)O)C(=O)N[C@@H](CCCNC(=N)N)C(=O)N[C@@H](CCCCN)C(=O)N[C@@H](CO)C(=O)N[C@@H](C)C(=O)N[C@@H](CCCNC(=N)N)C(=O)N[C@@H](CCCCN)C(=O)N[C@@H](CC(C)C)C(=O)N[C@@H](C)C(=O)N[C@@H](CC(N)=O)C(=O)N[C@@H](CCC(N)=O)C(N)=O` [listing 2 of 2 here] belongs 14.8 nM; to `CC(C)C[C@H](NC(=O)[C@H](CCCCN)NC(=O)[C@H](CCCNC(=N)N)NC(=O)[C@H](C)NC(=O)[C@H](CO)NC(=O)[C@H](CCCCN)NC(=O)[C@H](CCCNC(=N)N)NC(=O)C(C)(NC(=O)CNC(=O)[C@@H](NC(=O)[C@H](Cc1ccccc1)NC(=O)CNC(=O)CNC(=O)[C@@H](N)Cc1ccccc1)[C@@H](C)O)C(C)C)C(=O)N[C@@H](C)C(=O)N[C@@H](CC(N)=O)C(=O)N[C@@H](CCC(N)=O)C(N)=O` (stereo partly drawn) [listing 2 of 2 here], 27.5 nM.
